Assay results published in patent US20220160798A1 (priority 2019, published 2022).

Columns and labels:
ICR mice [1] = experiment: Morris water maze test, scopolamine-induced dementia; type: in vivo
Procedure: The deterioration of cognitive ability of Aβ1-42 (Amyloid Beta 1-42) was evaluated in 4-week-old male mice. ICR mice (Bio Link, Eumseong-gun, Chungbuk, Korea) were purchased, adapted to an experimental animal room for one week, and randomly consisted of 6 mice in each group. As experimental groups, a group administered with the Spirulina extract (hereinafter, SM70EE) produced by Example 1 by concentration and a group administered with chlorophyll a were used. As a control group, a group without treating a Spirulina extract, and as a comparative group, a group administered with scopolamine causing dementia and a group administered with donepezil as a dementia therapeutic agent were used. […]
In Experimental Example above, a passive avoidance analysis evaluation test was conducted by applying a Morris's method. […] For adaptation, only the swimming practice was performed for 60 seconds without a platform on the first day of the experiment, a test trial was performed for 4 days in the pool disposed with the platform from the second day, and then escape latency time which was time taken for experimental mice administered with a drug to escape on the platform was measured. […]

ICR mice [2] = experiment: Passive avoidance test, scopolamine-induced dementia; type: in vivo
Procedure: The deterioration of cognitive ability of Aβ1-42 (Amyloid Beta 1-42) was evaluated in 4-week-old male mice. ICR mice (Bio Link, Eumseong-gun, Chungbuk, Korea) were purchased, adapted to an experimental animal room for one week, and randomly consisted of 6 mice in each group. As experimental groups, a group administered with the Spirulina extract (hereinafter, SM70EE) produced by Example 1 by concentration and a group administered with chlorophyll a were used. As a control group, a group without treating a Spirulina extract, and as a comparative group, a group administered with scopolamine causing dementia and a group administered with donepezil as a dementia therapeutic agent were used. During the adaptation period, the feed and water were freely supplied without limitation, and the temperature of 22±2° C. and the humidity of 50±10% were maintained, and the contrast was adjusted to a period of 12 hours (09:00 to 21:00).
An avoidance box (40×20×20 cm) of a passive avoidance measuring device was divided into a light box and a dark box, and a door was installed between the rooms so that the experimental mice moved. […]
After 24 hours, the same test was conducted, and the escape latency time while the experimental mice moved was measured. […]

SMILES	escape latency time (ICR mice [1]; 10 mg/kg oral, scopolamine 1 mg/kg s.c.)	latency time (ICR mice [2]; 10 mg/kg oral, scopolamine 1 mg/kg s.c., vs scopolamine group)	escape latency time (ICR mice [1]; scopolamine only, 1 mg/kg s.c.)	latency time (ICR mice [2]; scopolamine only, 1 mg/kg s.c., vs control group)
C=Cc1c(C)c2cc3nc(c4c5[n-]c(cc6nc(cc1[n-]2)C(C)=C6CC)c(C)c5C(=O)[C@@H]4C(=O)OC)[C@@H](CCC(=O)OC/C=C(\C)CCC[C@H](C)CCC[C@H](C)CCCC(C)C)[C@@H]3C.[Mg+2] [chlorophyll a]	decreased	increased		
CN1[C@@H]2C[C@@H](OC(=O)[C@H](CO)c3ccccc3)C[C@H]1[C@@H]1O[C@@H]12 [scopolamine]			increased	significantly reduced
